Measured values from patent publication US20160282364A1, “ASSAY FOR INSULIN-DEGRADING ENZYME (IDE) INHIBITORS” (PRESIDENT AND FELLOWS OF HARVARD COLLEGE, priority 2013, published 2016).

What was measured:
C57BL/6J mice = test: Tolerability of inhibitor doses in mice; assay type: in vivo; conditions: 80 mg/kg lean, 60 mg/kg DIO mice, i.p.
Text: In vivo studies, general information. Wild-type C57BL/6J and diet-induced obese (DIO) C57BL/6J age-matched male adult mice were purchased from Jackson Laboratories. The age range was 13 to 15 weeks for lean mice, and 24 to 26 weeks for DIO mice. All animals were individually housed on a 14-h light, 10-h dark schedule at the Biology Research Infrastructure (BRI), Harvard University. Cage enrichment included cotton bedding and a red plastic hut. Water and food were available ad libitum, consisting respectively of normal chow (Prolab® RHM 3000) or high-fat diet (60 kcal % fat, D12492, Research Diets Inc.). All animal care and experimental procedures were in accordance with the standing committee on the Use of Animals in Research and Teaching at Harvard University, the guidelines and rules established by the Faculty of Arts and Sciences' Institutional Animal Care and Use Committee (IACUC), and the National Institutes of Health Guidelines for the Humane Treatment of Laboratory Animals. Glucagon-receptor knock-out (GCGR^−/−) mice were housed with a 14-h light and 10-h dark schedule and treated in accordance with the guidelines and rules approved by the IACUC at Albert Einstein College of Medicine, NY. Power analysis to determine animal cohort numbers was based on preliminary results and literature precedent, usually requiring between 5 and 8 animals per group. […]

[1] = system: lean and DIO C57BL/6J mice; test: i.p. injected glucose tolerance test (IPGTT); assay type: in vivo, mouse
Description: Wild-type lean C57BL/6J and diet-induced obese (DIO) C57BL/6J age-matched male mice were purchased from Jackson Laboratories, and used at ages 14-16, and 24-26 weeks respectively (>20 weeks of high-fat diet for the DIO mice). GCGR^/ mice were bred from heterozygous mice and used between 11 and 17 weeks. […] Blood glucose was measured from tail nicks using AccuCheck (Aviva) meters.
In vivo studies, general information. Wild-type C57BL/6J and diet-induced obese (DIO) C57BL/6J age-matched male adult mice were purchased from Jackson Laboratories. The age range was 13 to 15 weeks for lean mice, and 24 to 26 weeks for DIO mice. All animals were individually housed on a 14-h light, 10-h dark schedule at the Biology Research Infrastructure (BRI), Harvard University. Cage enrichment included cotton bedding and a red plastic hut. Water and food were available ad libitum, consisting respectively of normal chow (Prolab® RHM 3000) or high-fat diet (60 kcal % fat, D12492, Research Diets Inc.). All animal care and experimental procedures were in accordance with the standing committee on the Use of Animals in Research and Teaching at Harvard University, the guidelines and rules established by the Faculty of Arts and Sciences' Institutional Animal Care and Use Committee (IACUC), and the National Institutes of Health Guidelines for the Humane Treatment of Laboratory Animals. Glucagon-receptor knock-out (GCGR^−/−) mice were housed with a 14-h light and 10-h dark schedule and treated in accordance with the guidelines and rules approved by the IACUC at Albert Einstein College of Medicine, NY. Power analysis to determine animal cohort numbers was based on preliminary results and literature precedent, usually requiring between 5 and 8 animals per group. Animals were only excluded from the cohorts in cases of chronic weakness, which occurs among GCGR −/− mice, or when we identified occasional DIO mice with an outlier diabetic phenotype (>200 mg/dL fasting blood glucose). Age- and weight-matched mice were randomized to each treatment group. Double-blinding was not feasible.
Glucose tolerance tests GTT and blood glucose measurements. Prior to a glucose challenge, the animals were fasted for 14 h (8 pm to 10 am, during the dark cycle) while individually housed in a clean cage with inedible wood-chip as a floor substrate, cotton bedding and a red plastic hut. Inhibitor, vehicle or control compounds were administered by a single intraperitoneal (i.p.) injection 30 min prior to the glucose challenge. Dextrose was formulated in sterile saline (3 g in 10 mL total), and the dose was adjusted by fasted body weight. For oGTT, 3.0 g/kg dextrose was administered by gavage at a dose of 10 mL/kg, and for ipGTT, 1.5 g/kg dextrose injected at a dose of 5 mL/kg. Blood glucose was measured using AccuCheck® meters (Aviva) from blood droplets obtained from a small nick at the tip of the tail, at timepoints −45, 0, 15, 30, 45, 60, 90 and 120 min with reference to the time of glucose injection. The area of the blood glucose response profile curve corresponding to each animal was calculated by the trapezoid method^17, using as reference each individual baseline blood glucose measurement prior to glucose administration (t=0). […] Values are reported as mean±S.E.M. Statistics were performed using a two-tail Student's t-test, and significance levels shown in the figures are *p<0.05 versus vehicle control group or **p<0.01 versus vehicle control group.

IDE (R&D) = IDE (R&D) (Homo sapiens, UniProt P14735); test: Homogeneous time-resolved fluorescence (HTRF) insulin degradation assay; assay type: biochemical; design: recombinant human IDE42-1019 (R&D Systems); purchased R&D
Sequence of IDE (R&D) (P14735 42-1019): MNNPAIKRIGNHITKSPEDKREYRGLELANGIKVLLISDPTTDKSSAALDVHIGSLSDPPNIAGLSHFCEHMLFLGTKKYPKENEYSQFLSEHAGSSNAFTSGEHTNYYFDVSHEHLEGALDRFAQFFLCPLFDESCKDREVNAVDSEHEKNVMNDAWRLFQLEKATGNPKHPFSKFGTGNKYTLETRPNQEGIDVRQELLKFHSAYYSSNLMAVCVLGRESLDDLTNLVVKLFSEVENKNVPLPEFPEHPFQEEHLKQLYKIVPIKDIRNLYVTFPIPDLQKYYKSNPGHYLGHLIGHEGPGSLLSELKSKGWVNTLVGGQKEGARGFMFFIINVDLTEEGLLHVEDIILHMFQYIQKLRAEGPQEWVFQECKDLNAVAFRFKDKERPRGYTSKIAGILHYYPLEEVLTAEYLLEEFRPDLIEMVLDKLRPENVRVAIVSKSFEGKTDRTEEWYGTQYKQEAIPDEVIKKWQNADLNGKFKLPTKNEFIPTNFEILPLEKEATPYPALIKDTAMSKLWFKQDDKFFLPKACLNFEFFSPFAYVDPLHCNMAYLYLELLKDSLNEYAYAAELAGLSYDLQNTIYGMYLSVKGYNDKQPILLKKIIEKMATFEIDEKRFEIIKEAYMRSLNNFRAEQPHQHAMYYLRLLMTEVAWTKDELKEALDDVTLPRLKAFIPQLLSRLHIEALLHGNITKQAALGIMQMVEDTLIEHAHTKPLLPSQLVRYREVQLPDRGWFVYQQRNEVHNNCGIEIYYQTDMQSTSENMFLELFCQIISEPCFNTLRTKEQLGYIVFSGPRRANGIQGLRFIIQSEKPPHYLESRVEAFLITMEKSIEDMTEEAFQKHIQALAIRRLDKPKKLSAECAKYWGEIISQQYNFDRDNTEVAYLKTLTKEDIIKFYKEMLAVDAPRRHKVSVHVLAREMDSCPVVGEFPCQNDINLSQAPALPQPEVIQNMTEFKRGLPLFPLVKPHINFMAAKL
Description: All data points and error bars represent mean±SEM. Significance tests were performed using two-tail Student's t-test, and significance levels shown in the figures are p<0.05 (*) or p<0.01 (**) versus the vehicle-only control group. The in vitro selection of the DNA-templated macrocycle libraryl^16,17 used 20 μg His6-tagged mouse IDE immobilized on cobalt magnetic beads (Dynabeads, Invitrogen). IDE proteolytic activity was assayed with fluorogenic peptide Mca-[…](Dnp)-OH (R&D). IDE inhibition was confirmed using an anti-insulin antibody time-resolved FRET assay (Cysbio), and using an LCMS assay for CGRP cleavage fragments CGRP1-17 and CGRP18-37 in plasma^18. […] IDE degradation assays for insulin and calcitonin-gene related peptide (CGRP). […] Fluorescence was measured using a Tecan Safire 2 plate reader (excitation=320 nm, emission=665 and 620 nm, lag time=60 μs) according the assay manufacturer's recommendations. Degradation of CGRP by endogenous IDE in mouse plasma was analyzed by LC-MS for the formation of CGRP1-17 and CGRP18-37 as previously reported^6.

SMILES	tolerability (C57BL/6J mice)	IPGTT response at low dose ([1]; DIO mice, 40 mg/kg)	glucose response profile in IPGTT ([1]; DIO mice, 60 mg/kg, lower over initial 30 min, hyperglycemic rebound from 1 h)	IPGTT response at high dose ([1]; DIO mice, 90 mg/kg)	effective dose ([1]; i.p., 80 mg/kg lean (25 g), 60 mg/kg DIO (35-45 g)) [mg/mouse]	glucose tolerance after i.p. glucose injection ([1]; lean and DIO mice, glucose 1.5 g/kg i.p., vs vehicle)	inhibition of IDE proteolytic activity, insulin immunoassay (IDE (R&D))
NCCCC[C@@H]1NC(=O)/C=C/C(=O)N[C@H](C(N)=O)CCCCNC(=O)[C@@H](Cc2ccc(C(=O)c3ccccc3)cc2)NC(=O)[C@H](CC2CCCCC2)NC1=O [Compound 6bK]	well tolerated	too low to achieve a consistent effect	biphasic response	respond similarly to 60 mg/kg	~2	impaired glucose tolerance	–
NC(=O)CCC1NC(=O)C=CC(=O)NC(C(N)=O)CCCCNC(=O)C(Cc2ccc(C(=O)c3ccccc3)cc2)NC(=O)C(CC2CCCCC2)NC1=O (stereo not shown) [Compound 6b]	–	–	–	–	–	–	confirmed
